Experimental data: US20090202439A1, “Methods for treatment of angiogenesis” (The Johns Hopkins University, priority 2004, published 2009)
Like-named read-outs stand apart in the source and are kept apart here.

Tests used:
PECAM-1 [1] = assay: PECAM-1 protein expression by Western immunoblot in HUVECs; type: cell-based, human; details: for bypass of inhibitory effect of D-PDMP on VEGF induced PECAM-1 protein expression: HUVECs treated with D-PDMP, then lipid; for PECAM-1 expression induced by lipid: 2.5 μM for 4 hrs; for VEGF/LacCer induced PECAM-1: HUVECs pre-treated with NAC, DPI or PDTC; for reversal of inhibitory effect of PPMP on VEGF induced PECAM-1 expression: PPMP 90 min, then lipid 2.5 μM 4 hrs, GlcCer to a lesser extent than LacCer
Method: Cell Culture—Human umbilical vein endothelial cells (HUVEC) and endothelial cells growth medium EGM™ were purchased from Cambrex, (Walkersville, Md.) and were cultured in EGM™ medium supplemented with 10% fetal bovine serum (FBS).
Western Immunoblot Analysis—[…] of protein was resolved by 10% SDS-PAGE and then transferred to nitrocellulose membrane. The membrane-bound primary antibodies were visualized by horseradish peroxidase-conjugated secondary antibody using chemiluminescence kit. The films were then densitometrically scanned using Molecular Dynamics Image Scanner and analyzed using Image Quant software.

HUVECs = assay: In vitro angiogenesis/tube formation assay in HUVECs; type: cell-based, human; details: for bypass of inhibitory effect of D-PDMP on VEGF induced angiogenesis: HUVECs treated with D-PDMP, then lipid; for reversal of inhibitory effect of PPMP on VEGF induced angiogenesis: then lipid 2.5 μM 4 hrs, GlcCer to a lesser extent than LacCer
Method: (§1) In vitro angiogenesis/tube formation assay—In vitro angiogenesis assay was performed using a commercially available kit from Chemicon Inc (Temecula, Calif.).

PECAM-1 [2] = assay: PECAM-1 mRNA expression by real-time RT-PCR in HUVECs; type: cell-based, human
GbOse3Cer = GbOse3Cer synthesis in HUVECs; type: cell-based, human; details: cells treated with VEGF, with and without D-PDMP (data not shown)
HUVEC = assay: Apoptosis in HUVEC; type: cell-based, human; details: D-PDMP 20 μM up to 4-6 hrs, HUVEC (data not shown)
GlcCer = details: HUVECs
LacCer synthase = details: previously shown; cited from earlier work
NF-κB = assay: Cytosolic NF-κB expression in HUVECs; type: cell-based, human; details: HUVECs pre-treated with NAC, DPI or PDTC
GalT-V [3] = assay: GalT-V protein expression by immunoblot in siRNA transfected HUVECs; type: cell-based, human; details: siRNA duplex 100 nM, 48 hrs after transfection
Method: Next, 48 hrs after transfection cells were harvested lysed, and GalT-V protein levels were analyzed by immunoblot probed with GalT-V antibody or b-actin, as shown in the figure. GalT-V expression was expressed as % control, when normalized with b-actin expression and the relative quantification values are shown below the immunoblot. (C) HUVECs were transfected with either scrambled GalT-V siRNA (100 nM) or GalT-V siRNA (100 nM). […] The data shown is representative of two identical experiments yielding similar result. […] HUVECs were transfected with siRNA duplexes using Oligofectamine (Invitrogen), following protocol supplied by the manufacturer. Western Immunoblot Analysis-25 g of protein was resolved by 10% SDS-PAGE and then transferred to nitrocellulose membrane. The membrane-bound primary antibodies were visualized by horseradish peroxidase-conjugated secondary antibody using chemiluminescence kit. The films were then densitometrically scanned using Molecular Dynamics Image Scanner and analyzed using Image Quant software.

GalT-V [4] = assay: LacCer synthase (GalT-V) enzyme activity in siRNA transfected HUVECs; type: cell-based, human; details: siRNA 100 nM, compared with scrambled siRNA treated cells
Method: (C) HUVECs were transfected with either scrambled GalT-V siRNA (100 nM) or GalT-V siRNA (100 nM). 48 hrs post transfection, cells were lysed and Cer synthase enzyme activity was performed as described in “Materials and Methods”. […] HUVECs were transfected with siRNA duplexes using Oligofectamine (Invitrogen), following protocol supplied by the manufacturer.

REN (WT) cells = assay: In vitro angiogenesis assay in REN (WT) cells lacking PECAM-1; type: cell-based, human; details: VEGF 25 ng/ml or LacCer 2.5 μM 4 hrs, compared with 2% FBS treated cells
Method: (§2) REN (WT) [A] were either stimulated with VEGF (25 ng/ml) [B]; LacCer (2.5 μM) [C] or REN (rhPECAM-1) [D] with VEGF (25 ng/ml) (E) or LacCer [F] for 4 hrs and then in vitro angiogenesis assays were performed as described earlier. Results shown here are from set of experiments performed in triplicate yielding similar results.
(§3) Cell Culture—Human umbilical vein endothelial cells (HUVEC) and endothelial cells growth medium EGM™ were purchased from Cambrex, (Walkersville, Md.) and were cultured in EGM™ medium supplemented with 10% fetal bovine serum (FBS). Human mesoendothelioma cell line [(REN— wild type (WT)] which lacks endogenous PECAM-1 expression and REN (mt-rhPECAM-1) expressing human PECAM-1 was kindly provided by Dr. Steven Albelda, University of Pennsylvania Medical Center, USA. REN-WT was grown in RPMI 1640 supplemented with 101/&FBS. REN (mtrhPECAM-1) was cultured in the same medium with G418 (0.5 g/L Gibco).
as §1

REN (mt-rhPECAM-1) = assay: In vitro angiogenesis assay in REN cells transfected with human PECAM-1 gene; type: cell-based; details: REN transfected with human PECAM-1 gene, VEGF 25 ng/ml or LacCer 4 hrs, compared with control
Method: as §2, §3, §1

[5] = D-PDMP 20 μM for 90 min, then VEGF 25 ng/ml
[6] = CC 5.0 μM, GÖ 6850 and 6976 50 nM, BPB 10 μM, MAFP 3.0 μM, compared with vehicle (DMSO)
[7] = cells treated with increasing concentrations of L-PDMP
[8] = HUVECs pretreated with PPMP 20 μM
[9] = VEGF 25 ng/ml 4 hrs, compared to scrambled siRNA transfected cells
[10] = HUVECs, VEGF 30 ng/ml for 4 hrs

CCCCCCCCCCCCC/C=C/[C@@H](O)[C@H](CO)NC(C)=O [C2ceramide]
bypass of inhibitory effect of D-PDMP on VEGF induced PECAM-1 protein expression (PECAM-1 [1]): failed to bypass
PECAM-1 expression induced by lipid (PECAM-1 [1]; HUVECs): did not induce
bypass of inhibitory effect of D-PDMP on VEGF induced angiogenesis (HUVECs): failed to bypass

CCCCCCCCCC(=O)N[C@H](CN1CCOCC1)[C@H](O)c1ccccc1 [D-PDMP, (1R,2R)-1-phenyl-2-decanoylamino-3-morpholino-1-propanol]
VEGF induced PECAM-1 mRNA expression (PECAM-1 [2]; [5]): abrogated
VEGF induced PECAM-1 protein expression (PECAM-1 [1]; [5]): abrogated
VEGF-induced PECAM-1 expression (PECAM-1 [1]; HUVECs pre-incubated with D-PDMP 10-30 μM, then VEGF 25 ng/ml 4 hrs): concentration-dependent inhibition
level of GbOse3Cer synthesis (GbOse3Cer): similar
VEGF induced angiogenesis (HUVECs; HUVECs, D-PDMP): significantly mitigated
apoptosis (HUVEC): did not induce apoptosis
VEGF induced LacCer biosynthesis (LacCer; HUVECs pretreated with 20 μM D-PDMP, then VEGF 25 ng/ml): mitigated
VEGF induced GlcCer synthesis (GlcCer; D-PDMP 20 μM pretreatment, as early as 10 min): inhibited
action on LacCer synthase (LacCer synthase): inhibitor of purified LacCer synthase

c1ccc2c(c1)[I+]c1ccccc1-2 [DPI, diphenylene iodonium]
VEGF/LacCer induced PECAM-1 (PECAM-1 [1]): significantly blunted
VEGF/LacCer induced cytosolic NF-κB expression (NF-κB): significantly blunted

CN(C)CCCn1cc(C2=C(c3c[nH]c4ccccc34)C(=O)NC2=O)c2ccccc21 [GÖ 6850]
VEGF/LacCer induced PECAM-1 expression (PECAM-1 [1]; [6]): abrogated
VEGF/LacCer induced tube formation (HUVECs; [6]): abrogated

Cn1c2ccccc2c2c3c(c4c5ccccc5n(CCC#N)c4c21)CNC3=O [GÖ 6976]
VEGF/LacCer induced PECAM-1 expression (PECAM-1 [1]; [6]): abrogated
VEGF/LacCer induced tube formation (HUVECs; [6]): abrogated

CCCCCCCCCC(=O)N[C@@H](CN1CCOCC1)[C@@H](O)c1ccccc1 [L-PDMP]
PECAM-1 expression (PECAM-1 [1]; [7]): significantly induced
angiogenesis (HUVECs; [7]): significantly induced
action on LacCer synthase (LacCer synthase): potent activator

CC(=O)N[C@@H](CS)C(=O)O [NAC, N-Acetyl-L-cysteine]
VEGF/LacCer induced PECAM-1 (PECAM-1 [1]): significantly blunted

S=C(S)N1CCCC1 [PDTC, 1-pyrrolidinecarbodithioicacid]
VEGF/LacCer induced PECAM-1 (PECAM-1 [1]): significantly blunted
VEGF/LacCer induced cytosolic NF-κB expression (NF-κB): significantly blunted

CCCCCCCCCCCCCCCC(=O)NC(CN1CCOCC1)C(O)c1ccccc1 (centres unmarked) [PPMP]
VEGF induced PECAM-1 expression (PECAM-1 [1]; [8]): mitigation
VEGF induced angiogenesis (HUVECs; [8]): mitigation

CC(C)c1cc(/C=C(\C#N)C(=O)NCCCc2ccccc2)cc(C(C)C)c1O [SU 1498]
LacCer induced tube formation/angiogenesis (HUVECs; HUVECs pre-treated with SU 1498 1 hr, then LacCer): not LacCer
VEGF induced tube formation/angiogenesis (HUVECs; HUVECs pre-treated with SU 1498 1 hr, then VEGF): failed to induce tube formation/angiogenesis

GalT-V specific siRNA duplex: siRNA for human GalT-V: 5′-CGG AGU GAG UGG CUU AAC A dTdT-3′ (sense), 5′-UGU UAA GCC ACU CAC UCC G dTdT-3′ (antisense) (sense CGGAGUGAGUGGCUUAACATT; antisense UGUUAAGCCACUCACUCCGTT; chemistry not fully specified)
PECAM-1 expression in GalT-V silenced cells treated with VEGF (PECAM-1 [1]; [9]): No change
angiogenesis in GalT-V silenced cells treated with VEGF (HUVECs; [9]): blunted
decrease of GalT-V protein expression (GalT-V [3]): ~70%
decrease of GalT-V enzyme activity (GalT-V [4]): ~62%

Lactosylceramide [LacCer]
bypass of D-PDMP inhibition of PECAM-1 mRNA expression (PECAM-1 [2]; D-PDMP 20 μM 90 min, then VEGF 25 ng/ml and LacCer 2.5 μM 4 hrs): bypassed
bypass of inhibitory effect of D-PDMP on VEGF induced PECAM-1 protein expression (PECAM-1 [1]): bypassed
PECAM-1 expression induced by lipid (PECAM-1 [1]; HUVECs): significantly induced
reversal of inhibitory effect of PPMP on VEGF induced PECAM-1 expression (PECAM-1 [1]; HUVECs): reversed
reversal of inhibitory effect of PPMP on VEGF induced angiogenesis (HUVECs; HUVECs): reversed
induction of angiogenesis (HUVECs; HUVECs, independent of presence/absence of D-PDMP and VEGF): significantly induced
tube formation (REN (WT) cells): failed to form tube-like structures
tube formation (REN (mt-rhPECAM-1)): induced tube formation

Vascular endothelial growth factor [VEGF]
time of maximal PECAM-1 mRNA expression (PECAM-1 [2]; HUVECs, VEGF 25 ng/ml, different time points): 4 to 5 h
PECAM-1 mRNA expression (PECAM-1 [2]; [10]): Maximal
PECAM-1 mRNA expression (PECAM-1 [2]; HUVECs, VEGF 5-30 ng/ml): dose-dependent increase
time of maximal PECAM-1 protein expression (PECAM-1 [1]; HUVECs, VEGF 25 ng/ml, various time intervals): 4 h
PECAM-1 protein expression (PECAM-1 [1]; [10]): maximal
tube formation (REN (WT) cells): failed to form tube-like structures
tube formation (REN (mt-rhPECAM-1)): induced tube formation
de novo biosynthesis of LacCer (LacCer; HUVECs, VEGF 25 ng/ml, time-dependent, from 10 min): significantly stimulated
biosynthesis of GlcCer (GlcCer; VEGF 25 ng/ml): stimulated

bromophenacyl bromide [BPB]
VEGF/LacCer induced PECAM-1 expression (PECAM-1 [1]): abrogated
VEGF/LacCer induced tube formation (HUVECs): abrogated

digalactosylceramide [DGDG]
bypass of inhibitory effect of D-PDMP on VEGF induced PECAM-1 protein expression (PECAM-1 [1]): failed to bypass
PECAM-1 expression induced by lipid (PECAM-1 [1]; HUVECs): did not induce
bypass of inhibitory effect of D-PDMP on VEGF induced angiogenesis (HUVECs): failed to bypass

glucosylceramide [GlcCer]
bypass of inhibitory effect of D-PDMP on VEGF induced PECAM-1 protein expression (PECAM-1 [1]): failed to bypass
PECAM-1 expression induced by lipid (PECAM-1 [1]; HUVECs): did not induce
reversal of inhibitory effect of PPMP on VEGF induced PECAM-1 expression (PECAM-1 [1]; HUVECs): also reversed
bypass of inhibitory effect of D-PDMP on VEGF induced angiogenesis (HUVECs): failed to bypass
reversal of inhibitory effect of PPMP on VEGF induced angiogenesis (HUVECs; HUVECs): also reversed
